# Counter-ions that a name gives are not always drawn.
# How the values were obtained:
# ZAP-70 = molecular target: T1, ZAP-70 (Homo sapiens, UniProt P43403); assay: ZAP-70 kinobeads assay; assay type: binding; conditions: competition with immobilized aminopyrido-pyrimidine ligand 24 in cell lysate; ZAP-70 detected by dot blot
# T1 construct: endogenous in cells; host or cells: cell lysate
# T1 sequence (P43403 1-619): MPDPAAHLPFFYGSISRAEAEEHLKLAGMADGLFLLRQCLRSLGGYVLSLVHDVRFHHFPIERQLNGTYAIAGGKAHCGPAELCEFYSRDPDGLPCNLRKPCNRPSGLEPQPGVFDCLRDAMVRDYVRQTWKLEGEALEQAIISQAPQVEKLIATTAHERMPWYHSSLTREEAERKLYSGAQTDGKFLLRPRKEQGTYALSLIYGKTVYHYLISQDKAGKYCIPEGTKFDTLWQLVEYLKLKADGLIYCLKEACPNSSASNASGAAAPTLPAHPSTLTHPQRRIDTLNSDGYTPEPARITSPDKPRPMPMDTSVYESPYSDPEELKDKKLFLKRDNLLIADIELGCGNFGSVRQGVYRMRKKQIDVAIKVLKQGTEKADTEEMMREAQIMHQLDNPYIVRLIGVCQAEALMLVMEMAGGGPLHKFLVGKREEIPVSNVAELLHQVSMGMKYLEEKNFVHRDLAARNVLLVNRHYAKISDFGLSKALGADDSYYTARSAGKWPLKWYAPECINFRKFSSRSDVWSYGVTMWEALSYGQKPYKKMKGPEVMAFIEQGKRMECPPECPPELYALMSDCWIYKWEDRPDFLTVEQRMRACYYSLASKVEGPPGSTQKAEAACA
# How it was run: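 Cell lysate aliquots incubated with test compounds at various concentrations plus affinity beads carrying immobilized aminopyrido-pyrimidine ligand 24. Bead-captured proteins eluted; ZAP-70 quantified by specific antibody dot blot with infrared detection.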
# Jurkat cells = assay: Calcium release assay (Fluo-4 flow cytometry after anti-CD3 stimulation); assay type: cell-based; conditions: Homo sapiens, Jurkat cell line J77, anti-CD3 activation, read-out: IC50 (Calcium ion release in cells)
# How it was run: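 Jurkat J77 cells loaded with Fluo-4/Pluronic F-127 for 30 min at 37 °C, then incubated with compound at room temperature in the dark in PBS–CaCl2 with 10% FCS. Stimulation with anti-CD3 (0.2 μg/ml final) plus GAM (0.75 μg/ml final) at 37 °C, then flow-cytometric Ca2+ fluorescence acquired for 200 s.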
SMILES,IC50 (ZAP-70),IC50 (Jurkat cells)
"COc1cc(Nc2ncc(F)c(Nc3ccccc3NS(C)(=O)=O)n2)cc(OCCN2CCCC2)c1 [Example 94, N-(2-(5-fluoro-2-(3-methoxy-5-(2-(pyrrolidin-1-yl)ethoxy)phenylamino)pyrimidin-4-ylamino)phenyl)methanesulfonamide formate salt]",100 to 1000 nM,100 to 1000 nM
"COc1cc(Nc2ncc(Br)c(Nc3ccccc3NS(C)(=O)=O)n2)ccc1C [Example 104, N-(2-(5-bromo-2-(3-methoxy-4-methylphenylamino)pyrimidin-4-ylamino)phenyl)methanesulfonamide]",100 to 1000 nM,100 to 1000 nM
"COc1cc(Nc2ncc(F)c(Nc3ccc(C)c(C)c3NS(C)(=O)=O)n2)cc(OC)c1OC [Example 165, N-(6-(5-fluoro-2-(3,4,5-trimethoxyphenylamino)pyrimidin-4-ylamino)-2,3-dimethylphenyl)methanesulfonamide]",100 to 1000 nM,100 to 1000 nM
"CS(=O)(=O)Nc1ccccc1Nc1nc(Nc2cccc(OCCO)c2)ncc1F [Example 78, N-(2-(5-fluoro-2-(3-(2-hydroxyethoxy)phenylamino)pyrimidin-4-ylamino)phenyl)methanesulfonamide]",100 to 1000 nM,< 100 nM
"CS(=O)(=O)Nc1ccccc1Nc1nc(Nc2cccc(OCCN3CCCCC3)c2)ncc1F [Example 79, N-(2-(5-fluoro-2-(3-(2-(piperidin-1-yl)ethoxy)phenylamino)pyrimidin-4-ylamino)phenyl)methanesulfonamide formate]",< 100 nM,< 100 nM
"Cc1cc(C)cc(Nc2ncc(F)c(Nc3ccccc3NS(C)(=O)=O)n2)c1 [Example 3, N-(2-(2-(3,5-dimethylphenylamino)-5-fluoropyrimidin-4-ylamino)phenyl)methanesulfonamide]",100 to 1000 nM,100 to 1000 nM
"CS(=O)(=O)Nc1ccccc1Nc1nc(Nc2ccc3cn[nH]c3c2)ncc1F [Example 32, N-(2-(2-(1H-indazol-6-ylamino)-5-fluoropyrimidin-4-ylamino)phenyl)methanesulfonamide]",100 to 1000 nM,100 to 1000 nM
"CN1CCN(CCCOc2ccc(Nc3ncc(Cl)c(Nc4ccccc4NS(C)(=O)=O)n3)cc2)CC1 [Example 136, N-(2-(5-chloro-2-(4-(3-(4-methylpiperazin-1-yl)propoxy)phenylamino)pyrimidin-4-ylamino)phenyl)methanesulfonamide]",< 100 nM,< 100 nM
"CC(=O)c1cccc(Nc2ncc(F)c(Nc3ccccc3NS(C)(=O)=O)n2)c1 [Example 14, N-(2-(2-(3-acetylphenylamino)-5-fluoropyrimidin-4-ylamino)phenyl)methanesulfonamide]",100 to 1000 nM,100 to 1000 nM
"COc1ccc(Nc2ncc(Cl)c(Nc3ccccc3NS(C)(=O)=O)n2)cc1OCCN1CCCCC1 [Example 125, N-(2-(5-chloro-2-(4-methoxy-3-(2-(piperidin-1-yl)ethoxy)phenylamino)pyrimidin-4-ylamino)phenyl)methanesulfonamide]",< 100 nM,100 to 1000 nM
"COc1cc(Nc2ncc(F)c(Nc3cccc(F)c3NS(C)(=O)=O)n2)cc(OC)c1OC [Example 183, N-(2-fluoro-6-(5-fluoro-2-(3,4,5-trimethoxyphenylamino)pyrimidin-4-ylamino)phenyl)methanesulfonamide]",100 to 1000 nM,100 to 1000 nM
"COc1cc(Nc2nccc(Nc3cccc(C)c3NS(C)(=O)=O)n2)cc(OC)c1OC [Example 176, N-(2-methyl-6-(2-(3,4,5-trimethoxyphenylamino)pyrimidin-4-ylamino)phenyl)methanesulfonamide]",100 to 1000 nM,< 100 nM
"CCN(c1ccccc1Nc1nc(Nc2cc(OC)c(OC)c(OC)c2)ncc1F)S(C)(=O)=O [Example 154, N-ethyl-N-(2-(5-fluoro-2-(3,4,5-trimethoxyphenylamino)pyrimidin-4-ylamino)phenyl)methanesulfonamide]",100 to 1000 nM,< 100 nM
"CN1CCCCC1COc1cccc(Nc2ncc(Cl)c(Nc3ccccc3NS(C)(=O)=O)n2)c1 (stereo not drawn) [Example 145, N-(2-(5-chloro-2-(3-((1-methylpiperidin-2-yl)methoxy)phenylamino)pyrimidin-4-ylamino)phenyl)methanesulfonamide]",< 100 nM,100 to 1000 nM
"CN1CCCCC1COc1cccc(Nc2ncc(F)c(Nc3ccccc3NS(C)(=O)=O)n2)c1 (stereo not drawn) [Example 97, N-(2-(5-fluoro-2-(3-((1-methylpiperidin-2-yl)methoxy)phenylamino)pyrimidin-4-ylamino)phenyl)methanesulfonamide]",100 to 1000 nM,< 100 nM
"CCOc1cc(Nc2ncc(F)c(Nc3cccc(C)c3NS(C)(=O)=O)n2)cc(OC)c1OC [Example 117, N-(2-(2-(3-ethoxy-4,5-dimethoxyphenylamino)-5-fluoropyrimidin-4-ylamino)-6-methylphenyl)methanesulfonamide]",< 100 nM,100 to 1000 nM
"CS(=O)(=O)Nc1ccccc1Nc1nc(Nc2ccc(F)cc2)ncc1F [Example 2, N-(2-(5-fluoro-2-(4-fluorophenylamino)pyrimidin-4-ylamino)phenyl)methanesulfonamide]",1000 to 10000 nM,100 to 1000 nM
"COc1cc(Nc2nccc(Nc3ccccc3NS(C)(=O)=O)n2)cc(OC)c1OC [Example 69, N-(2-(2-(3,4,5-trimethoxyphenylamino)pyrimidin-4-ylamino)phenyl)methanesulfonamide]",100 to 1000 nM,100 to 1000 nM
"CS(=O)(=O)Nc1ccccc1Nc1nc(Nc2cccc(OCCN3CCCC3)c2)ncc1F [Example 95, N-(2-(5-fluoro-2-(3-(2-(pyrrolidin-1-yl)ethoxy)phenylamino)pyrimidin-4-ylamino)phenyl)methanesulfonamide]",< 100 nM,100 to 1000 nM
"Cc1cc(C)cc(Nc2ncc(C)c(Nc3ccccc3NS(C)(=O)=O)n2)c1 [Example 67, N-(2-(2-(3,5-dimethylphenylamino)-5-methylpyrimidin-4-ylamino)phenyl)methanesulfonamide]",100 to 1000 nM,100 to 1000 nM
"COc1cc(Nc2ncc(Cl)c(Nc3ccccc3NS(C)(=O)=O)n2)ccc1OCCN1CCCCC1 [Example 142, N-(2-(5-chloro-2-(3-methoxy-4-(2-(piperidin-1-yl)ethoxy)phenylamino)pyrimidin-4-ylamino)phenyl)methanesulfonamide hydrochloride]",< 100 nM,100 to 1000 nM
"COc1cc(Nc2ncc(F)c(Nc3ccccc3NS(=O)(=O)c3cccs3)n2)cc(OC)c1OC [Example 50, N-(2-(5-fluoro-2-(3,4,5-trimethoxyphenylamino)pyrimidin-4-ylamino)phenyl)thiopehene-2-sulfonamide]",1000 to 10000 nM,100 to 1000 nM
"COc1cc(Nc2ncc(Cl)c(Nc3ccccc3NS(C)(=O)=O)n2)cc(OC)c1OC [Example 138, N-(2-(5-chloro-2-(3,4,5-trimethoxyphenylamino)pyrimidin-4-ylamino)phenyl)methanesulfonamide hydrochloride]",< 100 nM,< 100 nM
"COc1ccc(Nc2ncc(Br)c(Nc3ccccc3NS(C)(=O)=O)n2)cc1 [Example 106, N-(2-(5-bromo-2-(4-methoxyphenylamino)pyrimidin-4-ylamino)phenyl)methanesulfonamide]",100 to 1000 nM,100 to 1000 nM
"CCc1cccc(Nc2nc(Nc3cc(OC)c(OC)c(OC)c3)ncc2F)c1NS(C)(=O)=O [Example 169, N-(2-ethyl-6-(5-fluoro-2-(3,4,5-trimethoxyphenylamino)pyrimidin-4-ylamino)phenyl)methanesulfonamide]",< 100 nM,100 to 1000 nM
CS(=O)(=O)Nc1ccccc1Nc1nc(Nc2ccc(OCCN3CCCCC3)cc2)ncc1F [Example 87],100 to 1000 nM,< 100 nM
"CN1CCCC(COc2cccc(Nc3ncc(Cl)c(Nc4ccccc4NS(C)(=O)=O)n3)c2)C1 (stereo not drawn) [Example 146, N-(2-(5-chloro-2-(3-((1-methylpiperidin-3-yl)methoxy)phenylamino)pyrimidin-4-ylamino)phenyl)methanesulfonamide]",< 100 nM,< 100 nM
"CS(=O)(=O)Nc1ccccc1Nc1nc(Nc2cccc(OCCN3CCCC3=O)c2)ncc1Cl [Example 130, N-(2-(5-chloro-2-(3-(2-(2-oxopyrrolidin-1-yl)ethoxy)phenylamino)pyrimidin-4-ylamino)phenyl)methanesulfonamide]",100 to 1000 nM,< 100 nM
"COc1cc(Nc2ncc(Br)c(Nc3ccccc3NS(C)(=O)=O)n2)cc(OC)c1 [Example 105, N-(2-(5-bromo-2-(3,5-dimethoxyphenylamino)pyrimidin-4-ylamino)phenyl)methanesulfonamide]",100 to 1000 nM,< 100 nM
CN1CCN(CCCOc2cccc(Nc3ncc(Cl)c(Nc4ccccc4NS(C)(=O)=O)n3)c2)CC1 [Example 135],< 100 nM,< 100 nM
